Data published in PMC6039563, “Functional Identification and Characterization of the Diuretic Hormone 31 (DH31) Signaling System in the Green Shore Crab, Carcinus maenas” (Frontiers in Neuroscience, 2018).
Ends that are not written are not given here.

What was measured:
C. maenas DH31R [1] = target: T1, C. maenas DH31R (Carcinus maenas, UniProt A0A345BTT1); experiment: aequorin luminescence Ca2+ mobilization assay, CHO-K1-Aeq-Gα16 cells transiently expressing DH31R; assay type: cell-based; conditions: for luminescence response / activation of DH31R: DH31R-transfected CHO-K1-Aeq cells, tested up to micromolar levels; for EC50: read-out: EC50 of luminescence response
T1 sequence (A0A345BTT1 1-442): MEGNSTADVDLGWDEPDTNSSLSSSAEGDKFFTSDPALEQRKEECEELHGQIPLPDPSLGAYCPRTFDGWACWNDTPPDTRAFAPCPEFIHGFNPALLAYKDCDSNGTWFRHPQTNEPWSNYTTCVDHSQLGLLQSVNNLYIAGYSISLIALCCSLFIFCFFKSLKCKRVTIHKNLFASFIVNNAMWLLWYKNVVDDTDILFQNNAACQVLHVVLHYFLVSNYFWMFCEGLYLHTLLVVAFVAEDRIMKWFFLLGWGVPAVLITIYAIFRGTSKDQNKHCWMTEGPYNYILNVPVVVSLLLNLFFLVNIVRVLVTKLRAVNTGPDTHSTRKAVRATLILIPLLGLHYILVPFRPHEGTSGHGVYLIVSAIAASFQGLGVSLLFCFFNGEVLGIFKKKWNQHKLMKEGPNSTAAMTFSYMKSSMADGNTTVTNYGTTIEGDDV
Protocol: (§1) Cells were then diluted 10-fold prior to assay.
Amino acid sequences are shown in Supplementary Table S2. […] Receptor responses were normalized against total Ca^2+ luminescence.

C. maenas DH31R [2] = target: T1, C. maenas DH31R; experiment: cell-based
Protocol: as §1
Amino acid sequences are shown in Supplementary Table S2. […] Ca^2+ evoked luminescence was recorded for 40 s, followed by cell lysis (injection of 0.3% Triton-X 100 in BSA medium), and light emission recorded for a further 10 s. […] Receptor responses were normalized against total Ca^2+ luminescence.

[3] = CHO-K1-Aeq-Gα16 cells transiently expressing DH31R, simultaneously performed experiments with three DH31s (Figure 3 main panel), means of n = 4

NSELINSLGLPKVMNDA-NH2 [C. maenas PDH-1, C. maenas pigment dispersing hormone-1 (Liverpool University)]
luminescence response / activation of DH31R (C. maenas DH31R [1]): No luminescence responses
luminescence response / activation of DH31R (C. maenas DH31R [1]; listed as PDH-1): does not activate

GLDLGLGRGFSGSQAAKHLMGLAAANFAGGP-NH2 [Tribolium castaneum DH31]
EC50 (C. maenas DH31R [1]; [3]): ~0.03 µM

GLDLGLSRGFSGSQAAKHLMGLAAANYAGGP-NH2 [Diploptera punctata DH31]
EC50 (C. maenas DH31R [1]; [3]): ~0.03 µM

GLDMGLGRGFSGSQAAKHLMGLAAANYAGGP-NH2 [C. maenas DH31]
EC50 (C. maenas DH31R [1]; CHO-K1-Aeq-Gα16 cells transfected with DH31R, Figure 3 inset, independent set of transfections, means of N = 4): ~0.015 µM
EC50 (C. maenas DH31R [1]; [3]): ~0.03 µM
EC50 (C. maenas DH31R [2]): ~0.015 µM

MQRPQGPSLSVANPIEVLRSRLLLEIARRRMKEQDASRVSKNRQYLQQIG [R. prolixus CRF-like DH, Rhodnius prolixus corticotropin releasing factor-like diuretic hormone (I. Orchard, Toronto)]
luminescence response / activation of DH31R (C. maenas DH31R [1]): No luminescence responses
